Results as given in ChEMBL document CHEMBL1201862, “PubChem BioAssay data set” (2004).
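Compound exposure: 48 hours, 5 concentrations, 96-well plates. GI50 marks 50% less growth.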 Active and inactive are the calls of the source. Cut-off read from the data, not from the text of the source: active = GI50 up to about 1.1 µM and inactive = higher.

Experiments:
Experiment in all cases: growth of human tumour cells (NCI), 48 h
[1] = tested on: MDA-N
[2] = tested on: Hs-578T
[3] = tested on: MDA-MB-231
[4] = tested on: DU-145
[5] = tested on: PC-3
[6] = tested on: BT-549
[7] = tested on: MDA-MB-435
[8] = tested on: T47D

Measured: GI50

NC(CCOCCP(=O)(O)O)C(=O)O (stereo not drawn)
inactive: [1] > 100 µM | [2] > 100 µM | [3] > 100 µM | [4] > 100 µM | [5] > 100 µM | [6] > 100 µM | [7] > 100 µM | [8] 57.7 µM
